Measurements published in ChEMBL document CHEMBL4138232, “O2-(2,4-dinitrophenyl)diazeniumdiolates derivatives: Design, synthesis, cytotoxic evaluation and reversing MDR in MCF-7/ADR cells” (Eur J Med Chem, 2018).

Test system: A549
Experiment: Antiproliferative activity against human A549 cells after 48 hrs by MTT assay relative to control
Type: functional, cell-based
Details: A549, 48 h

SMILES | IC50 [µM]
Cc1ccc(/C=C/C(=O)c2cccc(Oc3cc(O/N=[N+](\[O-])N4CCCCC4)c([N+](=O)[O-])cc3[N+](=O)[O-])c2)cc1 | 5.66
COc1ccc(C2CC(c3cccc(Oc4cc(O/N=[N+](\[O-])N5CCCCC5)c([N+](=O)[O-])cc4[N+](=O)[O-])c3)=NN2C(C)=O)cc1OC (centres undefined) | 1.02
COc1cc(/C=C/C(=O)c2cccc(Oc3cc(O/N=[N+](\[O-])N4CCOCC4)c([N+](=O)[O-])cc3[N+](=O)[O-])c2)cc(OC)c1OC | 1.96

Test system: MCF-10A
Experiment: Antiproliferative activity against human MCF10A cells after 48 hrs by MTT assay relative to control
Type: cell-based
Details: not given

SMILES | IC50 [µM]
Cc1ccc(/C=C/C(=O)c2cccc(Oc3cc(O/N=[N+](\[O-])N4CCCCC4)c([N+](=O)[O-])cc3[N+](=O)[O-])c2)cc1 | 128
COc1ccc(C2CC(c3cccc(Oc4cc(O/N=[N+](\[O-])N5CCCCC5)c([N+](=O)[O-])cc4[N+](=O)[O-])c3)=NN2C(C)=O)cc1OC (centres undefined) | 18.7
COc1cc(/C=C/C(=O)c2cccc(Oc3cc(O/N=[N+](\[O-])N4CCOCC4)c([N+](=O)[O-])cc3[N+](=O)[O-])c2)cc(OC)c1OC | 13.8

Test system: not listed separately
Experiment: Selectivity ratio of IC50 for human U2OS cells to IC50 for human MDA-MB-231 cells
Type: functional
Details: not given

SMILES | Ratio IC50
Cc1ccc(/C=C/C(=O)c2cccc(Oc3cc(O/N=[N+](\[O-])N4CCCCC4)c([N+](=O)[O-])cc3[N+](=O)[O-])c2)cc1 | 1.4
COc1ccc(C2CC(c3cccc(Oc4cc(O/N=[N+](\[O-])N5CCCCC5)c([N+](=O)[O-])cc4[N+](=O)[O-])c3)=NN2C(C)=O)cc1OC (centres undefined) | 4.9
COc1cc(/C=C/C(=O)c2cccc(Oc3cc(O/N=[N+](\[O-])N4CCOCC4)c([N+](=O)[O-])cc3[N+](=O)[O-])c2)cc(OC)c1OC | 4.4

Test system: MCF7
Experiment: Cytotoxicity against ADR-sensitive human MCF7 cells assessed as inhibition of cell viability after 48 hrs by MTT assay
Type: cell-based
Details: MCF7, 48 h

SMILES | IC50 [µM]
Cc1ccc(/C=C/C(=O)c2cccc(Oc3cc(O/N=[N+](\[O-])N4CCCCC4)c([N+](=O)[O-])cc3[N+](=O)[O-])c2)cc1 | 59.1
COc1ccc(C2CC(c3cccc(Oc4cc(O/N=[N+](\[O-])N5CCCCC5)c([N+](=O)[O-])cc4[N+](=O)[O-])c3)=NN2C(C)=O)cc1OC (centres undefined) | 25.2
COc1cc(/C=C/C(=O)c2cccc(Oc3cc(O/N=[N+](\[O-])N4CCOCC4)c([N+](=O)[O-])cc3[N+](=O)[O-])c2)cc(OC)c1OC | 20.9

Test system: U2OS
Experiment: Antiproliferative activity against human U2OS cells after 48 hrs by MTT assay relative to control
Type: functional, cell-based
Details: not given

SMILES | IC50 [µM]
Cc1ccc(/C=C/C(=O)c2cccc(Oc3cc(O/N=[N+](\[O-])N4CCCCC4)c([N+](=O)[O-])cc3[N+](=O)[O-])c2)cc1 | 5.22
COc1ccc(C2CC(c3cccc(Oc4cc(O/N=[N+](\[O-])N5CCCCC5)c([N+](=O)[O-])cc4[N+](=O)[O-])c3)=NN2C(C)=O)cc1OC (centres undefined) | 6.74
COc1cc(/C=C/C(=O)c2cccc(Oc3cc(O/N=[N+](\[O-])N4CCOCC4)c([N+](=O)[O-])cc3[N+](=O)[O-])c2)cc(OC)c1OC | 5.17

Test system: HCT-116
Experiment: Cytotoxicity against human HCT116 cells overexpressing GST-Pi assessed as inhibition of cell viability at 10 uM after 48 hrs by MTT assay relative to control
Type: functional
Details: HCT-116, 48 h

SMILES | inhibition at 10 µM [%]
Cc1ccc(/C=C/C(=O)c2cccc(Oc3cc(O/N=[N+](\[O-])N4CCCCC4)c([N+](=O)[O-])cc3[N+](=O)[O-])c2)cc1 | 62.2
COc1ccc(C2CC(c3cccc(Oc4cc(O/N=[N+](\[O-])N5CCCCC5)c([N+](=O)[O-])cc4[N+](=O)[O-])c3)=NN2C(C)=O)cc1OC (centres undefined) | 80.9
COc1cc(/C=C/C(=O)c2cccc(Oc3cc(O/N=[N+](\[O-])N4CCOCC4)c([N+](=O)[O-])cc3[N+](=O)[O-])c2)cc(OC)c1OC | 77.6

Test system: not listed separately
Experiment: Selectivity ratio of IC50 for human MCF10A cells to IC50 for human MDA-MB-231 cells
Type: toxicity
Details: MCF10A cells versus MDA-MB-231 cells, read-out: Ratio IC50

SMILES | selectivity ratio
Cc1ccc(/C=C/C(=O)c2cccc(Oc3cc(O/N=[N+](\[O-])N4CCCCC4)c([N+](=O)[O-])cc3[N+](=O)[O-])c2)cc1 | 34.2
COc1ccc(C2CC(c3cccc(Oc4cc(O/N=[N+](\[O-])N5CCCCC5)c([N+](=O)[O-])cc4[N+](=O)[O-])c3)=NN2C(C)=O)cc1OC (centres undefined) | 13.6
COc1cc(/C=C/C(=O)c2cccc(Oc3cc(O/N=[N+](\[O-])N4CCOCC4)c([N+](=O)[O-])cc3[N+](=O)[O-])c2)cc(OC)c1OC | 11.7

Test system: MDA-MB-231
Experiment: Antiproliferative activity against human MDA-MB-231 cells after 48 hrs by MTT assay relative to control
Type: functional, cell-based
Details: MDA-MB-231, 48 h

SMILES | IC50 [µM]
Cc1ccc(/C=C/C(=O)c2cccc(Oc3cc(O/N=[N+](\[O-])N4CCCCC4)c([N+](=O)[O-])cc3[N+](=O)[O-])c2)cc1 | 3.74
COc1ccc(C2CC(c3cccc(Oc4cc(O/N=[N+](\[O-])N5CCCCC5)c([N+](=O)[O-])cc4[N+](=O)[O-])c3)=NN2C(C)=O)cc1OC (centres undefined) | 1.37
COc1cc(/C=C/C(=O)c2cccc(Oc3cc(O/N=[N+](\[O-])N4CCOCC4)c([N+](=O)[O-])cc3[N+](=O)[O-])c2)cc(OC)c1OC | 1.18

Test system: not listed separately
Experiment: Selectivity ratio of IC50 for human A549 cells to IC50 for human MDA-MB-231 cells
Type: functional
Details: not given

SMILES | Ratio IC50
Cc1ccc(/C=C/C(=O)c2cccc(Oc3cc(O/N=[N+](\[O-])N4CCCCC4)c([N+](=O)[O-])cc3[N+](=O)[O-])c2)cc1 | 1.5
COc1ccc(C2CC(c3cccc(Oc4cc(O/N=[N+](\[O-])N5CCCCC5)c([N+](=O)[O-])cc4[N+](=O)[O-])c3)=NN2C(C)=O)cc1OC (centres undefined) | 0.7
COc1cc(/C=C/C(=O)c2cccc(Oc3cc(O/N=[N+](\[O-])N4CCOCC4)c([N+](=O)[O-])cc3[N+](=O)[O-])c2)cc(OC)c1OC | 1.7

Target: T1, Glutathione S-transferase P (Homo sapiens, UniProt P09211)
T1 sequence (P09211 whole entry): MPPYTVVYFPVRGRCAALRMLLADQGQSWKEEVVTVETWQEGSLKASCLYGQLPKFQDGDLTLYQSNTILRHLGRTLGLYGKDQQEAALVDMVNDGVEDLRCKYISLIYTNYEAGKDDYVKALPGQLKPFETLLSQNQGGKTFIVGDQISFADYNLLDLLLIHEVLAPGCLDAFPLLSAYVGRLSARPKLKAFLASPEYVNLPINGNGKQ
Experiment: Prodrug activation in human HCT116 cells assessed as GST-Pi-mediated NO release at 5 uM after 24 hrs in presence of GST-Pi inhibitor etacrynic acid by nitrate reductase assay
Type: cell-based
Details: not given

SMILES | Drug metabolism
COc1ccc(C2CC(c3cccc(Oc4cc(O/N=[N+](\[O-])N5CCCCC5)c([N+](=O)[O-])cc4[N+](=O)[O-])c3)=NN2C(C)=O)cc1OC (centres undefined) | Metabolite_Notdetected
COc1cc(/C=C/C(=O)c2cccc(Oc3cc(O/N=[N+](\[O-])N4CCOCC4)c([N+](=O)[O-])cc3[N+](=O)[O-])c2)cc(OC)c1OC | Metabolite_Notdetected

Target: T1, Glutathione S-transferase P
Experiment: Prodrug activation in human HCT116 cells assessed as GST-Pi-mediated NO release at 5 uM after 24 hrs in presence of NO scavenger carboxy-PTIO by nitrate reductase assay
Type: cell-based
Details: not given

SMILES | Drug metabolism
COc1ccc(C2CC(c3cccc(Oc4cc(O/N=[N+](\[O-])N5CCCCC5)c([N+](=O)[O-])cc4[N+](=O)[O-])c3)=NN2C(C)=O)cc1OC (centres undefined) | Metabolite_Notdetected
COc1cc(/C=C/C(=O)c2cccc(Oc3cc(O/N=[N+](\[O-])N4CCOCC4)c([N+](=O)[O-])cc3[N+](=O)[O-])c2)cc(OC)c1OC | Metabolite_Notdetected

Test system: HCT-116
Experiment: Antiproliferative activity against human HCT116 cells after 48 hrs by MTT assay relative to control
Type: functional, cell-based
Details: HCT-116, 48 h

SMILES | IC50 [µM]
Cc1ccc(/C=C/C(=O)c2cccc(Oc3cc(O/N=[N+](\[O-])N4CCCCC4)c([N+](=O)[O-])cc3[N+](=O)[O-])c2)cc1 | 6.31
COc1ccc(C2CC(c3cccc(Oc4cc(O/N=[N+](\[O-])N5CCCCC5)c([N+](=O)[O-])cc4[N+](=O)[O-])c3)=NN2C(C)=O)cc1OC (centres undefined) | 1.43
COc1cc(/C=C/C(=O)c2cccc(Oc3cc(O/N=[N+](\[O-])N4CCOCC4)c([N+](=O)[O-])cc3[N+](=O)[O-])c2)cc(OC)c1OC | 2.92

Target: T1, Glutathione S-transferase P
Experiment: Prodrug activation in human HCT116 cells assessed as GST-Pi-mediated NO release at 5 uM after 24 hrs by nitrate reductase assay
Type: cell-based
Details: not given

SMILES | Drug metabolism
COc1ccc(C2CC(c3cccc(Oc4cc(O/N=[N+](\[O-])N5CCCCC5)c([N+](=O)[O-])cc4[N+](=O)[O-])c3)=NN2C(C)=O)cc1OC (centres undefined) | Metabolite_Detected

Test system: not listed separately
Experiment: Cytotoxicity against ADR-sensitive human MCF7 cells assessed as inhibition of cell viability at 10 uM after 48 hrs by MTT assay relative to control
Type: cell-based
Details: read-out: INH

SMILES | cytotoxicity at 48 h, 10 µM [%]
Cc1ccc(/C=C/C(=O)c2cccc(Oc3cc(O/N=[N+](\[O-])N4CCCCC4)c([N+](=O)[O-])cc3[N+](=O)[O-])c2)cc1 | 14.2
COc1ccc(C2CC(c3cccc(Oc4cc(O/N=[N+](\[O-])N5CCCCC5)c([N+](=O)[O-])cc4[N+](=O)[O-])c3)=NN2C(C)=O)cc1OC (centres undefined) | 17.2
COc1cc(/C=C/C(=O)c2cccc(Oc3cc(O/N=[N+](\[O-])N4CCOCC4)c([N+](=O)[O-])cc3[N+](=O)[O-])c2)cc(OC)c1OC | 21.5

Species on record: Homo sapiens
Experiment: Inhibition of MDR in human MCF7/ADR cells assessed as potentiation of adriamycin-induced antiproliferative activity by measuring fold reduction in adriamycin IC50 at 10 uM after 48 hrs by MTT assay
Type: cell-based
Details: not given

SMILES | fold change (FC)
Cc1ccc(/C=C/C(=O)c2cccc(Oc3cc(O/N=[N+](\[O-])N4CCCCC4)c([N+](=O)[O-])cc3[N+](=O)[O-])c2)cc1 | 51.2
COc1ccc(C2CC(c3cccc(Oc4cc(O/N=[N+](\[O-])N5CCCCC5)c([N+](=O)[O-])cc4[N+](=O)[O-])c3)=NN2C(C)=O)cc1OC (centres undefined) | 71.7
COc1cc(/C=C/C(=O)c2cccc(Oc3cc(O/N=[N+](\[O-])N4CCOCC4)c([N+](=O)[O-])cc3[N+](=O)[O-])c2)cc(OC)c1OC | 72.3

Test system: not listed separately
Experiment: Selectivity ratio of IC50 for human HCT116 cells to IC50 for human MDA-MB-231 cells
Type: functional
Details: not given

SMILES | Ratio IC50
Cc1ccc(/C=C/C(=O)c2cccc(Oc3cc(O/N=[N+](\[O-])N4CCCCC4)c([N+](=O)[O-])cc3[N+](=O)[O-])c2)cc1 | 1.7
COc1ccc(C2CC(c3cccc(Oc4cc(O/N=[N+](\[O-])N5CCCCC5)c([N+](=O)[O-])cc4[N+](=O)[O-])c3)=NN2C(C)=O)cc1OC (centres undefined) | 1
COc1cc(/C=C/C(=O)c2cccc(Oc3cc(O/N=[N+](\[O-])N4CCOCC4)c([N+](=O)[O-])cc3[N+](=O)[O-])c2)cc(OC)c1OC | 2.4
